Measurements taken from patent publication US9878985B2, “Benzocyclobutane(thio) carboxamides” (BAYER CROPSCIENCE AKTIENGESELLSCHAFT, priority 2013, dated 2018).

Assay: Log P by HPLC on reversed phase columns (EEC directive 79/831 Annex V.A8)
Format: physicochemical
Conditions: Table 1; method [a]: LC-UV, acidic range, 0.1% formic acid in water and acetonitrile
Procedure: Measurement of Log P values was performed according to EEC directive 79/831 Annex V.A8 by HPLC (High Performance Liquid Chromatography) on reversed phase columns with the following method: • [^a] Log P value is determined by measurement of LC-UV, in an acidic range, with 0.1% formic acid in water and acetonitrile as eluent (linear gradient from 10% acetonitrile to 95% acetonitrile). Calibration was done with straight-chain alkan2-ones (with 3 to 16 carbon atoms) with known Log P values (measurement of Log P values using retention times with linear interpolation between successive alkanones). Lambda-max-values were determined using UV-spectra from 200 nm to 400 nm and the peak values of the chromatographic signals.

Compound	LogP
Cn1nc(C(F)F)c(C(=O)Nc2cccc3c2CC3c2ccccc2)c1Cl (centres unmarked) [Example I-11]	3.71^[a]
Cn1cc(C(=O)Nc2cccc3c2CC32CCCC2)c(C(F)F)n1 [Example I-03]	3.59^[a]
Cc1nn(C)c(F)c1C(=O)Nc1cccc2c1CC21CCCCC1 [Example I-10]	3.87^[a]
Cn1nc(C(F)F)c(C(=O)Nc2cccc3c2CC32CCCC2)c1F [Example I-02]	3.90[a]
CC1Cc2c(NC(=O)c3c(C(F)F)nn(C)c3F)cccc21 (centres unmarked) [Example I-15]	3.02^[a]
O=C(Nc1cccc2c1CC21CCCCC1)c1cccnc1C(F)F [Example I-17]	3.80^[a]
CC(C)C1Cc2c(NC(=O)c3c(C(F)F)nn(C)c3Cl)cccc21 (centres unmarked) [Example I-16]	4.06^[a]
CCC1(C)Cc2c(NC(=O)c3c(C(F)F)nn(C)c3Cl)cccc21 (centres unmarked) [Example I-12]	3.96^[a]
CC(C)C1Cc2c(NC(=O)c3cccnc3C(F)F)cccc21 (centres unmarked) [Example I-06]	3.39^[a]
CCC1(CC)Cc2c(NC(=O)c3c(C(F)F)nn(C)c3F)cccc21 [Example I-14]	4.11^[a]
Cn1cc(C(=O)Nc2cccc3c2CC32CCCCC2)c(C(F)F)n1 [Example I-08]	3.94^[a]
CCC1(C)Cc2c(NC(=O)c3cccnc3C(F)F)cccc21 (centres unmarked) [Example I-05]	3.31^[a]
CCC1(C)Cc2c(NC(=O)c3cn(C)nc3C(F)F)cccc21 (centres unmarked) [Example I-13]	3.44^[a]
Cn1cc(C(=O)Nc2cccc3c2CC3c2ccccc2)c(C(F)F)n1 (centres unmarked) [Example I-01]	3.20^[a]
CCC1(CC)Cc2c(NC(=O)c3c(C(F)F)nn(C)c3Cl)cccc21 [Example I-04]	4.36^[a]
Cn1nc(C(F)F)c(C(=O)Nc2cccc3c2CC32CCCCC2)c1Cl [Example I-07]	4.56^[a]
O=C(Nc1cccc2c1CC21CCCC1)c1cccnc1C(F)F [Example I-09]	3.46^[a]

Other lines, results leading:

LogP	Compound
3.06^[a]	O=C(Nc1cccc2c1CC2c1ccccc1)c1cccnc1C(F)F (centres unmarked) [Example I-19]
3.50^[a]	CC(C)C1Cc2c(NC(=O)c3cn(C)nc3C(F)F)cccc21 (centres unmarked) [Example I-20]
4.31^[a]	Cn1nc(C(F)F)c(C(=O)Nc2cccc3c2CC32CCCCC2)c1F [Example I-18]
4.14^[a]	Cn1nc(C(F)F)c(C(=O)Nc2cccc3c2CC32CCCC2)c1Cl [Example I-21]

Same assay, conditions: Table 2 (amines III-a); method [a]: LC-UV, acidic range, 0.1% formic acid in water and acetonitrile

LogP	Compound
2.37^[a]	Nc1cccc2c1CC21CCCCC1 [III-a-7]
1.90^[a]	CC(C)C1Cc2c(N)cccc21 (centres unmarked) [III-a-4]
2.32^[a]	CCC1(CC)Cc2c(N)cccc21 [III-a-2]
1.82^[a]	CCC1(C)Cc2c(N)cccc21 (centres unmarked) [III-a-6]
1.36^[a]	CC1(C)Cc2c(N)cccc21 [III-a-5]
2.03^[a]	Nc1cccc2c1CC21CCCC1 [III-a-1]
2.20^[a]	Nc1cccc2c1CC2c1ccccc1 (centres unmarked) [III-a-8]
0.87^[a]	CC1Cc2c(N)cccc21 (centres unmarked) [III-a-3]
